{
  "source": "patent US12258304B2",
  "about": "“Compounds and methods for treatment of bacterial infections” (Albert Einstein College of Medicine, priority 2019, dated 2025)",
  "molecules": {"B1": {"name": "PhMqnE (MqnE from Pedobacter heparinus) (Pedobacter heparinus DSM 2366) (protein)", "chain": "MDTTSKLALILADADLPAALKAIALKVQNQERITFDEGVYLYENAELGYLGVLANYIREQKHGDNTYFNRNFHIEPTNVCVYDCKFCSYSRLIKQKEEGWEMSVDGMMEVLKKYDHEPVTEVHITGGVVPKQNLEFYSDFFRRAKAHRPELHIKALTPVEYYYIFKKAKLSHYDGMKYMQEAGLDSMPGGGAEIFHPEVREKIAHDKCNAEQWLDIHEQAHKLGMKTNATMLYGHIEQFWHRVDHMERLRRQQDKTGGFQAFIPLKFRNQHNQMDHVPEVSVIEDLRNYAIARIYMDNFDHIKAYWAMISRQTAQLSLNFGVDDIDGTLDDTTKIYSMAGAEEQHPAMSTRDLVDLIKQVKRKPIERDTLYNVVTDYSQVTFEDEVKPQYYKLPVIN"}},
  "key": {"HEK293T cells": {"system": "HEK293T cells", "assay": "HEK293T cell growth and viability", "type": "cell-based, human", "details": "1 mM 2F-DHC, 24 and 48 hr culture", "description": "(§1) FIGS. 4(a) and 4(b) illustrate E. coli and HEK293T cell growth in the presence of 2F-DHC.\n(§2) As shown in FIG. 4(a), an overnight culture of E. coli was diluted 1:25 into 100 μL of minimal media with either 1 μL of DMSO (no DHC control) or 1 μL of 100 mM 2F-DHC in DMSO in a 96-well plate. The plate was shaken at 37° C. and monitored for at 2, 3, and 4 hr post inoculation by measuring the OD600. […] Cell growth and viability were measured with an automated cell counter after staining with tryptan blue (Countess, Life Technologies)."}, "Helicobacter pylori (Hp)": {"system": "Helicobacter pylori (Hp)", "assay": "Hp growth inhibition in liquid culture (OD600)", "type": "cell-based", "description": "Inhibition was determined by measuring the OD600 of liquid cultures incubated at 37° C. for 48 hours.\n(§3) Hp grows under microanaerobic conditions in the human gut, where over population can lead to ulcers and cancer. Based on the K results described above, the effects of 2F-DHC were examined on the growth of Hp in BHI medium supplemented with 10% fetal bovine serum and Hp selective supplement (DENT supplement) in 96-well plate format. Growth of Hp was detected by measuring the optical density of the media at 600 nm after 72 hr of growth at 37° C. […] To determine if 2F-DHC inhibits Hp growth by specifically blocking the action of MqnE in the futalosine pathway, it was tested whether the product of MqnE, AF, could rescue Hp growth in the presence of 2F-DHC."}, "[1]": {"biological_target": "T1, PhMqnE (MqnE from Pedobacter heparinus) (Pedobacter heparinus, UniProt C6XW09)", "assay": "PhMqnE competition / inhibition assay (AF formation)", "type": "biochemical", "description": "(§4) FIGS. 2(a), 2(b) and 2(c) illustrate inhibition studies of MqnE. […] Assays contained 0.5 μM of PhMqnE, 1 mM SAM, 1 mM DHC, and 2-FDHC varied from 5 μM to 2 mM.\n(§5) The mqnE gene from Pedobacter heparinus (PhMqnE) was coexpressed together with the pPH151 plasmid, which contains the suf operon from E. coli under the control of a T7 promoter, to promote proper FeS cluster assembly in PhMqnE. […] It was surmised that positioning fluorine atoms around the aromatic ring of DHC would stabilize the captodative radical intermediate 1 by preventing it from converting to intermediate 2 in FIG. 1(a), thereby acting as a mechanism-based inhibitor and trapping the enzyme in an intermediate state. DHC analogues were synthesized with fluorine at the 2, 4, 5, and 2,4 positions of DHC (FIG. 1 (b))."}, "Escherichia coli": {"system": "Escherichia coli", "assay": "E. coli growth in minimal media (OD600)", "type": "cell-based", "details": "1 μL of 100 mM 2F-DHC in 100 μL minimal media, OD600 at 2, 3 and 4 hr", "text": "as §1, §3, §2"}, "[2]": {"biological_target": "T1, PhMqnE (MqnE from Pedobacter heparinus)", "assay": "PhMqnE substrate kinetics / turnover of DHC analogues", "type": "biochemical", "description": "as §4, §5"}, "[3]": {"substrate": "C=C(Oc1cccc(C(=O)O)c1)C(=O)O", "assay": "PhMqnE substrate kinetics / turnover of DHC analogues", "type": "biochemical, Pedobacter heparinus", "details": "other: purified PhMqnE, dithionite (DT) as electron source"}, "[4]": {"details": "media supplemented with 1 mM AF, 48 hr"}},
  "note": "“Also recorded” adds a separate entry of the source.",
  "data": [
    {"molecule": "C=C(Oc1cccc(C(=O)O)c1F)C(=O)O", "note": "[2F-DHC]", "values": [
      {"measurement": "effect on HEK293T cell growth and viability", "setting": "HEK293T cells", "value": "No difference in growth is observed"},
      {"measurement": "IC90", "setting": "Helicobacter pylori (Hp); Helicobacter pylori, 72 hr, read-out: minimal inhibitory concentration that restricts >90% of the growth (IC90)", "value": "< 23", "unit": "µg/mL"},
      {"measurement": "IC50", "setting": "Helicobacter pylori (Hp); Helicobacter pylori, BHI medium, 10% FBS, OD600 after 72 hr at 37° C.", "value": "31.8 ± 2.5", "unit": "µM"},
      {"measurement": "inhibition at 30 µM", "setting": "Helicobacter pylori (Hp); Helicobacter pylori, at ˜30 μM (6 pg/mL), 72 hr", "value": "~50", "unit": "%"},
      {"measurement": "growth of Hp", "setting": "Helicobacter pylori (Hp); at 1 mM, 48 hr", "value": "completely inhibits growth; also recorded: fully inhibited"},
      {"measurement": "growth of Hp", "setting": "Helicobacter pylori (Hp); at, 72 hr", "value": "completely inhibited"},
      {"measurement": "inhibition of AF production", "setting": "[1]; 250 μM inhibitor, 0.5 μM PhMqnE, 1 mM SAM, 1 mM DHC", "value": "almost completely inhibited"},
      {"measurement": "rate of AF formation in the presence of inhibitor", "setting": "[1]; competition assay, 2 mM DHC + 2 mM analogue, 3.5 min^−1 without analogues", "value": 0.2, "unit": "min⁻¹"},
      {"measurement": "Ki", "setting": "[1]; fit to non-linear competitive inhibition equation, 0.5 μM PhMqnE, 1 mM SAM, 1 mM DHC", "value": "~2", "unit": "µM"},
      {"measurement": "effect on growth of E. coli", "setting": "Escherichia coli", "value": "no effect; also recorded: No difference in growth is observed"},
      {"measurement": "fold slower product formation than with DHC as substrate", "setting": "[2]; 2 mM SAM and 2 mM 2F-DHC", "value": "~10", "unit": "fold"},
      {"measurement": "rate of conversion to fluorinated AF product", "setting": "[2]; 2 mM SAM and 2 mM analogue as sole substrate", "value": 0.41, "unit": "min⁻¹"}
    ]},
    {"molecule": "Nc1ncnc2c1ncn2[C@@H]1O[C@H](CCC(=O)c2cccc(C(=O)O)c2)[C@@H](O)[C@H]1O", "note": "[AF, aminofutalosine, reference compound]", "values": [
      {"measurement": "OD600 of Hp culture in the presence of 1 mM 2F-DHC", "setting": "Helicobacter pylori (Hp); [4]", "value": "~0.28"},
      {"measurement": "rescue of Hp growth in the presence of 1 mM 2F-DHC", "setting": "Helicobacter pylori (Hp); [4]", "value": "fully restored; also recorded: can restore growth"}
    ]},
    {"molecule": "C[S+](CC[C@H](N)C(=O)[O-])C[C@H]1O[C@@H](n2cnc3c(N)ncnc32)[C@H](O)[C@@H]1O", "note": "(stereo partly drawn) [SAM, S-adenosyl-L-methionine, reference compound]", "values": [
      {"measurement": "Km", "setting": "[2]; purified PhMqnE, dithionite (DT) as electron source", "value": 21, "unit": "µM"}
    ]},
    {"molecule": "B1", "values": [
      {"measurement": "Km", "setting": "[3]", "value": 72, "unit": "µM"}
    ]}
  ]
}
